Experimental data as given in US10781204B2, “TYK2 inhibitors and uses thereof” (Nimbus Lakshmi, Inc., priority 2015, dated 2020).

What was measured:
TYK2 = TYK2 (Homo sapiens (Human), UniProt P29597); assay: Tyk2 radioactive kinase assay; type: biochemical; conditions: ATP 10 μM
In short: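 Recombinant human TYK2 (Invitrogen) was mixed with 20 μM peptide substrate in a buffer of 20 mM Hepes pH 7.5, 10 mM MgCl2, 1 mM EGTA, 0.02% Brij35, 0.02 mg/mL BSA, 0.1 mM […], 2 mM DTT and 1% DMSO, and compounds in DMSO were added. Adding ^33P-ATP (10 μM ATP) started the reaction, which ran 120 min at room temperature. Mixtures were then spotted onto P81 ion-exchange paper, washed thoroughly in 0.75% phosphoric acid, and counted for radioactivity.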

[1] = system: Tyk2-pSTAT4 (IL-12 induced pSTAT4); assay: IL-12 induced pSTAT4 in human PBMC; type: cell-based; conditions: 1.7 ng/mL IL-12, 30 minutes
In short: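 Thawed human PBMC (200,000 cells/well, serum-containing medium) preincubated with compound 1 hr at 37 C, 0.1% DMSO final. Stimulated with 1.7 ng/mL IL-12 (final) for 30 minutes; pSTAT4 and total STAT4 in lysates measured by MSD immunoassay.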

[2] = system: JAK2-pSTAT5 (GM-CSF induced pSTAT5); assay: GM-CSF induced pSTAT5 in human PBMC; type: cell-based; conditions: 5 ng/mL GM-CSF
Method: Human PBMC are isolated from buffy coat and are stored frozen for assays as needed. Cells for assay are thawed and resuspended in complete media containing serum, then cells are diluted to 1.67 E6 cells/ml so that 120 ul per well is 200,000 cells. 15 ul of compound or DMSO is added to the well at the desired concentrations and incubated at 1 hr at 37 C. 15 ul of stimulus (final concentration of 1.7 ng/mL IL-12) is added for 30 minutes prior to pSTAT4 and total STAT4 analysis using cell lysates prepared and analyzed by MSD reagents as per manufacturer protocol. The final DMSO concentration of compound in the assay is 0.1%.
Cells are prepared for analysis as in the above procedure and 15 ul of GM-CSF (final concentration 5 ng/mL) is added for 20 minutes prior to pSTAT5 and total STAT5 analysis using cell lysates prepared and analyzed by MSD reagents as per manufacturer protocol. The final DMSO concentration of compound in the assay is 0.1%.

JAK2 = JAK2 (Homo sapiens (Human), UniProt O60674); assay: JAK2 radioactive kinase assay; type: biochemical; conditions: ATP 10 μM
In short: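 Radiometric assay in Hepes pH 7.5, MgCl2, EGTA, Brij35, BSA, DTT, 1% DMSO, with 10 μM [33P]ATP, 120 min at room temp; P81 paper capture and counting. […]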

TYK2, sequence (P29597 whole entry): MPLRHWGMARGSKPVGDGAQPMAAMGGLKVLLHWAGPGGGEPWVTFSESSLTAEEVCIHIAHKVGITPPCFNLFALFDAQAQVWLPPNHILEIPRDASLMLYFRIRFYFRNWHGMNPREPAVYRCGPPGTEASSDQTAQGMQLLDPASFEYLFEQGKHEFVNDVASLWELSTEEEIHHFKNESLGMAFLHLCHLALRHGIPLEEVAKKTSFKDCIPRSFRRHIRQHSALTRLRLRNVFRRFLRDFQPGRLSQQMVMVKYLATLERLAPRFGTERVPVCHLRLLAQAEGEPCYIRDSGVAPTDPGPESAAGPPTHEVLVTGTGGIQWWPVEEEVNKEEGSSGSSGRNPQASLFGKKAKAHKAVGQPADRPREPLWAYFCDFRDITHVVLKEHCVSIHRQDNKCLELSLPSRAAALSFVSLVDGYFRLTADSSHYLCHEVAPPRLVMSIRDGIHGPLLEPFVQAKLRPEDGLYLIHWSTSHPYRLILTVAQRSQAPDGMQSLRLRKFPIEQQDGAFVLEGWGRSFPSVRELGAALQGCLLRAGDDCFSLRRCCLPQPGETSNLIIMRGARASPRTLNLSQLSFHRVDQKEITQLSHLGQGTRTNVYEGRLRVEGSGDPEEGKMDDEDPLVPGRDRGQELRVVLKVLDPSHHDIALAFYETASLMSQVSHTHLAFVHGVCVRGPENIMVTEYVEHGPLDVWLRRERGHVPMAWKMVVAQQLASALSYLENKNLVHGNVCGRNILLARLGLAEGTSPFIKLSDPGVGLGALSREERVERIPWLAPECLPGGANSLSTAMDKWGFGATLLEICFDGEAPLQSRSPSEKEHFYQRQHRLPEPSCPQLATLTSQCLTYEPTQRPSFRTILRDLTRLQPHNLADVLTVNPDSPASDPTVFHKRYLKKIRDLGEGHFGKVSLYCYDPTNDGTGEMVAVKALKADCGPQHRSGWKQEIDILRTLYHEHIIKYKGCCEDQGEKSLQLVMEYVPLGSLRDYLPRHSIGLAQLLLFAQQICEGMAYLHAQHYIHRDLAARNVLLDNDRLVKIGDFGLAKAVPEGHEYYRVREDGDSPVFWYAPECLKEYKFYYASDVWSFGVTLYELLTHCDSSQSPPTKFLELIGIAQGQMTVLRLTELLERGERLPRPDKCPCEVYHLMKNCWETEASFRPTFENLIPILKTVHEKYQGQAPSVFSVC
JAK2, sequence (O60674 whole entry): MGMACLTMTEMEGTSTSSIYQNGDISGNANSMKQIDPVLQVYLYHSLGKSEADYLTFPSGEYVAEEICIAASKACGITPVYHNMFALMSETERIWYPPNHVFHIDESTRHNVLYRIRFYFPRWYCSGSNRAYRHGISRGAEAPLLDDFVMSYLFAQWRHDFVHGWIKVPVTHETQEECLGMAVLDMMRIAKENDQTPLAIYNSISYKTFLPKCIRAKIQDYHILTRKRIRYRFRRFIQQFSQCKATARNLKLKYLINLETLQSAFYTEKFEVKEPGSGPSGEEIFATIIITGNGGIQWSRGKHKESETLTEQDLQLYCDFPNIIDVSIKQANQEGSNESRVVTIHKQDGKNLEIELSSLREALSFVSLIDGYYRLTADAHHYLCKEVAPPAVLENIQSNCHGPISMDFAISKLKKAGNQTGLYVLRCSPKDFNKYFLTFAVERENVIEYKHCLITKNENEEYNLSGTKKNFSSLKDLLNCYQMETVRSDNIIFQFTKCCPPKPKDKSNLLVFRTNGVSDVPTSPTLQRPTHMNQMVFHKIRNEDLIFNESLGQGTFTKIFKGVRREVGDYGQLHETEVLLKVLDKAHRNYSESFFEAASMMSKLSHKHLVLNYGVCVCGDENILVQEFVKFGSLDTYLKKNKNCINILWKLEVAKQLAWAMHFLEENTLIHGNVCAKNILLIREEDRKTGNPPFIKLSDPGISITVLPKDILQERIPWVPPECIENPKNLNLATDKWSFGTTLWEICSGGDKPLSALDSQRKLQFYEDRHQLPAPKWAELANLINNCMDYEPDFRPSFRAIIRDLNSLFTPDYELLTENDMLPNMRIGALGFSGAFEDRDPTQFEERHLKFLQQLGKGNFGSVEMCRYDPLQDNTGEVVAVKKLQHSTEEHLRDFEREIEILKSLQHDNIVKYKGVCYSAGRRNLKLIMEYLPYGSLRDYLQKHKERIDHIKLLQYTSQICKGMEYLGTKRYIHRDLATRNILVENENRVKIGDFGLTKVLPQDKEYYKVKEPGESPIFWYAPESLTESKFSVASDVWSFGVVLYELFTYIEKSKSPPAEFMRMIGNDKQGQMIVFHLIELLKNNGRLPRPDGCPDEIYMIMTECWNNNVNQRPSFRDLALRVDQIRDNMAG

N#Cc1cccc(F)c1-c1cc(-n2ccc(N3CCC(O)CC3)n2)c2c(n1)CNC2=O [I-56, 3-fluoro-2-(4-(3-(4-hydroxypiperidin-1-yl)-1H-pyrazol-1-yl)-5-oxo-6,7-dihydro-5H-pyrrolo[3,4-b]pyridin-2-yl)benzonitrile]
Ki (TYK2): 0.1 to 10 nM | EC50 ([1]; Homo sapiens, PBMC, 0.5 h): 100 to 2000 nM | EC50 ([2]; Homo sapiens, PBMC, 20 min): 100 to 2000 nM | Ki (JAK2): 10 to 100 nM

CC(C)n1ccc(-c2cc(-c3c(F)cccc3C#N)nc3c2C(=O)NC3)n1 [I-57, 3-fluoro-2-(4-(1-isopropyl-1H-pyrazol-3-yl)-5-oxo-6,7-dihydro-5H-pyrrolo[3,4-b]pyridin-2-yl)benzonitrile]
Ki (TYK2): 0.1 to 10 nM | EC50 ([1]; Homo sapiens, PBMC, 0.5 h): 100 to 2000 nM | EC50 ([2]; Homo sapiens, PBMC, 20 min): 100 to 2000 nM | Ki (JAK2): 100 to 1000 nM

N#Cc1cccc(F)c1-c1cc(-n2ccc(N3CCC(N4CCOCC4)CC3)n2)c2c(n1)CNC2=O [I-59, 3-fluoro-2-(4-(3-(4-morpholinopiperidin-1-yl)-1H-pyrazol-1-yl)-5-oxo-6,7-dihydro-5H-pyrrolo[3,4-b]pyridin-2-yl)benzonitrile]
Ki (TYK2): 0.1 to 10 nM | EC50 [1]: 100 to 2000 nM | EC50 ([2]; 20 minutes): 100 to 2000 nM | Ki (JAK2): 0.1 to 10 nM

CC1(O)CCCN(c2ccn(-c3cc(-c4c(F)cccc4C#N)nc4c3C(=O)NC4)n2)C1 (stereo not drawn) [I-62, 3-fluoro-2-(4-(3-(3-hydroxy-3-methylpiperidin-1-yl)-1H-pyrazol-1-yl)-5-oxo-6,7-dihydro-5H-pyrrolo[3,4-b]pyridin-2-yl)benzonitrile]
Ki (TYK2): 0.009 to 0.1 nM | EC50 ([1]; Homo sapiens, PBMC, 0.5 h): 100 to 2000 nM | EC50 ([2]; Homo sapiens, PBMC, 20 min): 100 to 2000 nM | Ki (JAK2): 10 to 100 nM

N#Cc1cccc(F)c1-c1cc(-n2ccc(NCCN3CCOCC3)n2)c2c(n1)CNC2=O [I-63, 3-fluoro-2-(4-(3-((2-morpholinoethyl)amino)-1H-pyrazol-1-yl)-5-oxo-6,7-dihydro-5H-pyrrolo[3,4-b]pyridin-2-yl)benzonitrile]
Ki (TYK2): 0.1 to 10 nM | EC50 ([1]; 0.5 h): 100 to 2000 nM | EC50 ([2]; 20 min): 100 to 2000 nM | Ki (JAK2): 10 to 100 nM

N#Cc1cccc(F)c1-c1cc(-n2ccc(N3CCCC(O)C3)n2)c2c(n1)CNC2=O (stereo not drawn) [I-65, 3-fluoro-2-(4-(3-(3-hydroxypiperidin-1-yl)-1H-pyrazol-1-yl)-5-oxo-6,7-dihydro-5H-pyrrolo[3,4-b]pyridin-2-yl)benzonitrile]
Ki (TYK2): 0.1 to 10 nM | EC50 ([1]; Homo sapiens, PBMC, 0.5 h): 30 to 100 nM | EC50 ([2]; Homo sapiens, PBMC, 20 min): 100 to 2000 nM | Ki (JAK2): 10 to 100 nM

N#Cc1cccc(F)c1-c1cc(-n2ccc(N3CCC[C@@H](O)C3)n2)c2c(n1)CNC2=O [I-69, (R)-3-fluoro-2-(4-(3-(3-hydroxypiperidin-1-yl)-1H-pyrazol-1-yl)-5-oxo-6,7-dihydro-5H-pyrrolo[3,4-b]pyridin-2-yl)benzonitrile]
Ki (TYK2): 0.1 to 10 nM | EC50 ([1]; Homo sapiens, PBMC, 0.5 h): 100 to 2000 nM | EC50 ([2]; Homo sapiens, PBMC, 20 min): 100 to 2000 nM | Ki (JAK2): 10 to 100 nM

N#Cc1cccc(F)c1-c1cc(-n2ccc(N3CCC[C@H](O)C3)n2)c2c(n1)CNC2=O [I-70, (S)-3-fluoro-2-(4-(3-(3-hydroxypiperidin-1-yl)-1H-pyrazol-1-yl)-5-oxo-6,7-dihydro-5H-pyrrolo[3,4-b]pyridin-2-yl)benzonitrile]
Ki (TYK2): 0.1 to 10 nM | EC50 ([1]; Homo sapiens, PBMC, 0.5 h): 100 to 2000 nM | EC50 ([2]; Homo sapiens, PBMC, 20 min): 100 to 2000 nM | Ki (JAK2): 0.1 to 10 nM

C[C@@]1(O)CCCN(c2ccn(-c3cc(-c4c(F)cccc4C#N)nc4c3C(=O)NC4)n2)C1 [I-71, (R)-3-fluoro-2-(4-(3-(3-hydroxy-3-methylpiperidin-1-yl)-1H-pyrazol-1-yl)-5-oxo-6,7-dihydro-5H-pyrrolo[3,4-b]pyridin-2-yl)benzonitrile]
Ki (TYK2): 0.009 to 0.1 nM | EC50 ([1]; Homo sapiens, PBMC, 0.5 h): 30 to 100 nM | EC50 ([2]; Homo sapiens, PBMC, 20 min): 100 to 2000 nM | Ki (JAK2): 10 to 100 nM

C[C@]1(O)CCCN(c2ccn(-c3cc(-c4c(F)cccc4C#N)nc4c3C(=O)NC4)n2)C1 [I-72, (S)-3-fluoro-2-(4-(3-(3-hydroxy-3-methylpiperidin-1-yl)-1H-pyrazol-1-yl)-5-oxo-6,7-dihydro-5H-pyrrolo[3,4-b]pyridin-2-yl)benzonitrile]
Ki (TYK2): 0.1 to 10 nM | EC50 ([1]; Homo sapiens, PBMC, 0.5 h): 100 to 2000 nM | EC50 ([2]; Homo sapiens, PBMC, 20 min): > 2000 nM | Ki (JAK2): 0.1 to 10 nM

N#Cc1cccc(F)c1-c1cc(-n2ccc(N3CCC(O)C3)n2)c2c(n1)CNC2=O (stereo not drawn) [I-76, 3-fluoro-2-(4-(3-(3-hydroxypyrrolidin-1-yl)-1H-pyrazol-1-yl)-5-oxo-6,7-dihydro-5H-pyrrolo[3,4-b]pyridin-2-yl)benzonitrile]
Ki (TYK2): 0.009 to 0.1 nM | EC50 ([1]; Homo sapiens, PBMC, 0.5 h): 30 to 100 nM | EC50 ([2]; Homo sapiens, PBMC, 20 min): 100 to 2000 nM | Ki (JAK2): 0.1 to 10 nM

N#Cc1cccc(F)c1-c1cc(-n2ccc(N3CC[C@@H](O)C3)n2)c2c(n1)CNC2=O [I-78, (R)-3-fluoro-2-(4-(3-(3-hydroxypyrrolidin-1-yl)-1H-pyrazol-1-yl)-5-oxo-6,7-dihydro-5H-pyrrolo[3,4-b]pyridin-2-yl)benzonitrile]
Ki (TYK2): 0.1 to 10 nM | EC50 ([1]; Homo sapiens, PBMC, 0.5 h): 30 to 100 nM | EC50 ([2]; Homo sapiens, PBMC, 20 min): 100 to 2000 nM | Ki (JAK2): 10 to 100 nM

N#Cc1cccc(F)c1-c1cc(-n2ccc(N3CC[C@H](O)C3)n2)c2c(n1)CNC2=O [I-79, (S)-3-fluoro-2-(4-(3-(3-hydroxypyrrolidin-1-yl)-1H-pyrazol-1-yl)-5-oxo-6,7-dihydro-5H-pyrrolo[3,4-b]pyridin-2-yl)benzonitrile]
Ki (TYK2): 0.1 to 10 nM | EC50 ([1]; Homo sapiens, PBMC, 0.5 h): 30 to 100 nM | EC50 ([2]; Homo sapiens, PBMC, 20 min): 100 to 2000 nM | Ki (JAK2): 10 to 100 nM

N#Cc1cccc(F)c1-c1cc(-n2ccc(N3CCCOCC3)n2)c2c(n1)CNC2=O [I-83, 2-(4-(3-(1,4-oxazepan-4-yl)-1H-pyrazol-1-yl)-5-oxo-6,7-dihydro-5H-pyrrolo[3,4-b]pyridin-2-yl)-3-fluorobenzonitrile]
Ki (TYK2): 0.1 to 10 nM | EC50 ([1]; Homo sapiens, PBMC, 0.5 h): 100 to 2000 nM | EC50 ([2]; Homo sapiens, PBMC, 20 min): > 2000 nM | Ki (JAK2): 10 to 100 nM

N#Cc1cccc(F)c1-c1cc(-n2ccc(N3CCCC(N)(C(F)(F)F)C3)n2)c2c(n1)CNC2=O (stereo not drawn) [I-84, 2-(4-(3-(3-amino-3-(trifluoromethyl)piperidin-1-yl)-1H-pyrazol-1-yl)-5-oxo-6,7-dihydro-5H-pyrrolo[3,4-b]pyridin-2-yl)-3-fluorobenzonitrile]
Ki (TYK2): 0.009 to 0.1 nM | EC50 ([1]; Homo sapiens, PBMC, 0.5 h): 30 to 100 nM | EC50 ([2]; Homo sapiens, PBMC, 20 min): 100 to 2000 nM | Ki (JAK2): 0.1 to 10 nM

N#Cc1cccc(F)c1-c1cc(-n2ccc(N3CCC[C@](O)(C(F)(F)F)C3)n2)c2c(n1)CNC2=O [I-88, (R)-3-fluoro-2-(4-(3-(3-hydroxy-3-(trifluoromethyl)piperidin-1-yl)-1H-pyrazol-1-yl)-5-oxo-6,7-dihydro-5H-pyrrolo[3,4-b]pyridin-2-yl)benzonitrile]
Ki (TYK2): 0.009 to 0.1 nM | EC50 ([1]; Homo sapiens, PBMC, 0.5 h): 100 to 2000 nM | EC50 ([2]; Homo sapiens, PBMC, 20 min): > 2000 nM | Ki (JAK2): 10 to 100 nM

N#Cc1cccc(F)c1-c1cc(-n2ccc(N3CCC[C@@](O)(C(F)(F)F)C3)n2)c2c(n1)CNC2=O [I-89, (S)-3-fluoro-2-(4-(3-(3-hydroxy-3-(trifluoromethyl)piperidin-1-yl)-1H-pyrazol-1-yl)-5-oxo-6,7-dihydro-5H-pyrrolo[3,4-b]pyridin-2-yl)benzonitrile]
Ki (TYK2): 0.1 to 10 nM | EC50 ([1]; Homo sapiens, PBMC, 0.5 h): 100 to 2000 nM | EC50 ([2]; Homo sapiens, PBMC, 20 min): > 2000 nM | Ki (JAK2): 10 to 100 nM

N#Cc1cccc(F)c1-c1cc(-n2ccc(N3CCCC(C(=O)O)C3)n2)c2c(n1)CNC2=O (stereo not drawn) [I-91, 1-(1-(2-(2-cyano-6-fluorophenyl)-5-oxo-6,7-dihydro-5H-pyrrolo[3,4-b]pyridin-4-yl)-1H-pyrazol-3-yl)piperidine-3-carboxylic acid]
Ki (TYK2): 0.1 to 10 nM | EC50 ([1]; Homo sapiens, PBMC, 0.5 h): 100 to 2000 nM | EC50 ([2]; Homo sapiens, PBMC, 20 min): > 2000 nM | Ki (JAK2): 10 to 100 nM

C[C@@]1(O)CCN(c2ccn(-c3cc(-c4c(F)cccc4C#N)nc4c3C(=O)NC4)n2)C1 [I-92, (R)-3-fluoro-2-(4-(3-(3-hydroxy-3-methylpyrrolidin-1-yl)-1H-pyrazol-1-yl)-5-oxo-6,7-dihydro-5H-pyrrolo[3,4-b]pyridin-2-yl)benzonitrile]
Ki (TYK2): 0.1 to 10 nM | EC50 ([1]; Homo sapiens, PBMC, 0.5 h): 30 to 100 nM | EC50 ([2]; Homo sapiens, PBMC, 20 min): 100 to 2000 nM | Ki (JAK2): 10 to 100 nM

N#Cc1cccc(F)c1-c1cc(-n2ccc(N3CCCC(C#N)C3)n2)c2c(n1)CNC2=O (stereo not drawn) [I-95, 1-(1-(2-(2-cyano-6-fluorophenyl)-5-oxo-6,7-dihydro-5H-pyrrolo[3,4-b]pyridin-4-yl)-1H-pyrazol-3-yl)piperidine-3-carbonitrile]
Ki (TYK2): 0.1 to 10 nM | EC50 ([1]; Homo sapiens, PBMC, 0.5 h): 30 to 100 nM | EC50 ([2]; Homo sapiens, PBMC, 20 min): 100 to 2000 nM | Ki (JAK2): 10 to 100 nM

N#Cc1cccc(F)c1-c1cc(-n2ccc(N3CCC[C@@H](CO)C3)n2)c2c(n1)CNC2=O [I-97, (R)-3-fluoro-2-(4-(3-(3-(hydroxymethyl)piperidin-1-yl)-1H-pyrazol-1-yl)-5-oxo-6,7-dihydro-5H-pyrrolo[3,4-b]pyridin-2-yl)benzonitrile]
Ki (TYK2): 0.1 to 10 nM | EC50 ([1]; Homo sapiens, PBMC, 0.5 h): 30 to 100 nM | EC50 ([2]; Homo sapiens, PBMC, 20 min): 100 to 2000 nM | Ki (JAK2): 10 to 100 nM
